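Where inhibition never reached the appropriate level, the endpoint shown equals the highest concentration tested. Otherwise, values were interpolated linearly from a five-concentration, 48-hour dose response in 96-well plates. Abbreviation: GI50, concentration required for 50% inhibition of growth. TGI denotes the concentration required for complete inhibition of growth.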 Where only a bound is given, the exact number is not on record here.

Drawing on PubChem BioAssay (NCI), this text covers GI50 and TGI for 8 molecules.

Among the test systems are EKVX NSCLC; HCT-15 colon; HL-60(TB) leukemia; HOP-62 NSCLC; NCI-H460 lung; OVCAR-5 ovarian; RXF 393 renal; SNB-75 CNS; MOLT-4 leukemia; SK-MEL-2 melanoma.
Common to all, as to assay: growth of human tumour cells (NCI), 48 h

On to `S=C(Nc1ccc(Cl)cc1)Nc1ccc(-c2nc3ccccc3[nH]2)cc1`, for which the GI50 with EKVX NSCLC is 13.3 µM; in the test on HCT-15 colon it was 3.82 µM; in the test on HL-60(TB) leukemia it was 7.26 µM; in the test on HOP-62 NSCLC, 15 µM; in the test on NCI-H460 lung, 9.28 µM; in the test on OVCAR-5 ovarian it was 20.4 µM. For the same molecule, the GI50 in the test on RXF 393 renal was 5.86 µM; with SNB-75 CNS, 15.7 µM. In addition, the TGI in the test on EKVX NSCLC was 52.5 µM; in the test with HCT-15 colon, 12.9 µM; in the test with HL-60(TB) leukemia, above 66 µM; in the test with HOP-62 NSCLC it was 30 µM; with NCI-H460 lung it was above 43.4 µM; in the test with OVCAR-5 ovarian, 40.8 µM. Moreover, the TGI is above 20.5 µM in the test with RXF 393 renal and above 55 µM in the test with SNB-75 CNS.
`CS(=O)c1ccc(COP(N)(=O)N(CCCl)CCCl)cc1` (centres undefined): the TGI in the test with EKVX NSCLC, with HL-60(TB) leukemia, with HOP-62 NSCLC, with MOLT-4 leukemia, with NCI-H460 lung and in the test on OVCAR-5 ovarian was above 100 µM each time. In addition, the TGI in the test with RXF 393 renal, in the test on SK-MEL-2 melanoma and in the test with SNB-75 CNS was above 100 µM in each case.
As to `Cc1cc(S(=O)(=O)Nc2nnc(-c3ccccc3)c(-c3ccccc3)n2)c(SCc2ccccc2)cc1Cl`, the GI50 is 5.68 µM with EKVX NSCLC; 20.3 µM in the test on HCT-15 colon; 34.1 µM in the test with HL-60(TB) leukemia; 22.9 µM with HOP-62 NSCLC; 15 µM with MOLT-4 leukemia; 23.8 µM in the test with NCI-H460 lung. Moreover, the GI50 was 24.8 µM in the test on OVCAR-5 ovarian, 19.8 µM with RXF 393 renal and 29.4 µM in the test with SNB-75 CNS. Moreover, the TGI in the test on EKVX NSCLC worked out at 25.2 µM; in the test with HCT-15 colon, 43.3 µM; in the test with HL-60(TB) leukemia, 67.2 µM; with HOP-62 NSCLC it was 39.6 µM; in the test on MOLT-4 leukemia, 36.8 µM; with NCI-H460 lung it was 65.7 µM. In addition, the TGI in the test with OVCAR-5 ovarian amounted to 50.3 µM; in the test with RXF 393 renal it was 39.2 µM; with SNB-75 CNS, 49 µM.
`N.N.NC(CS)C(=O)[O-].NC(CS)C(=O)[O-].[Pt+4]` (centres undefined): the GI50 in the test on EKVX NSCLC, in the test with HCT-15 colon, in the test with HL-60(TB) leukemia, in the test on MOLT-4 leukemia, in the test with NCI-H460 lung and with OVCAR-5 ovarian was above 50 µM each time. Moreover, the GI50 in the test with RXF 393 renal, in the test on SK-MEL-2 melanoma and with SNB-75 CNS was above 50 µM each time. In addition, the TGI in the test on EKVX NSCLC, in the test with HCT-15 colon, with HL-60(TB) leukemia, with MOLT-4 leukemia, with NCI-H460 lung and with OVCAR-5 ovarian was above 50 µM in each case. The TGI in the test on RXF 393 renal, in the test with SK-MEL-2 melanoma and in the test with SNB-75 CNS was above 50 µM throughout.
As to `COc1cc2c(/C=C3/C(=O)Nc4ccccc43)c(Cl)n(Cc3ccccc3[N+](=O)[O-])c2cc1C`, the GI50 in the test with EKVX NSCLC was 5.66 µM; in the test with HCT-15 colon it was 6.6 µM; with HL-60(TB) leukemia it was 4.78 µM; in the test on HOP-62 NSCLC, 10.7 µM; with MOLT-4 leukemia, 5.51 µM; in the test on NCI-H460 lung it was 5.51 µM. For the same molecule, the GI50 is 15.6 µM in the test with OVCAR-5 ovarian, 18.9 µM with RXF 393 renal and 12.9 µM in the test on SK-MEL-2 melanoma. Moreover, the TGI with EKVX NSCLC was 29.5 µM; with HCT-15 colon, 26.7 µM; with HL-60(TB) leukemia, above 100 µM; in the test with HOP-62 NSCLC, 27.6 µM; with MOLT-4 leukemia, 70.3 µM; with NCI-H460 lung, above 100 µM. Also, the values for the TGI with OVCAR-5 ovarian, with RXF 393 renal and in the test on SK-MEL-2 melanoma were 35.4 µM, 96.2 µM and 40.5 µM, respectively.
With `CC(=O)OC(C)(C)/C=C/C(=O)[C@](C)(O)[C@H]1[C@H](O)C[C@@]2(C)[C@@H]3CC=C4[C@@H](C[C@H](O)C(=O)C4(C)C)[C@]3(C)C(=O)C[C@]12C`, the TGI with EKVX NSCLC is below 0.0221 µM; in the test on HCT-15 colon, 4.99 µM; in the test on HL-60(TB) leukemia it was below 0.01 µM; with MOLT-4 leukemia it was 2.78 µM; in the test on NCI-H460 lung it was 1.37 µM; in the test with OVCAR-5 ovarian, 13.8 µM. The TGI in the test on RXF 393 renal was below 0.0128 µM; in the test on SK-MEL-2 melanoma, below 0.01 µM; with SNB-75 CNS it was below 0.01 µM.
As to `C[C@]12CC[C@@H]3c4ccc(O)cc4CC[C@H]3[C@@H]1CC[C@@H]2NS(=O)(=O)Cc1ccc(Cl)cc1`, the GI50 with HCT-15 colon was 2.33 µM; in the test with HL-60(TB) leukemia, 3.26 µM; in the test with HOP-62 NSCLC, 2.97 µM; in the test with MOLT-4 leukemia it was 2.62 µM; with NCI-H460 lung, 2.23 µM; in the test on OVCAR-5 ovarian, 3.76 µM. Also, the GI50 was 2.04 µM with RXF 393 renal, 2.54 µM with SK-MEL-2 melanoma and 2.08 µM in the test with SNB-75 CNS. Moreover, the TGI stood at 7.76 µM in the test with HCT-15 colon; 14.5 µM in the test with HL-60(TB) leukemia; 8.14 µM with HOP-62 NSCLC; 31.3 µM in the test with MOLT-4 leukemia; 5.31 µM with NCI-H460 lung; 14.2 µM in the test with OVCAR-5 ovarian. For the same molecule, the TGI in the test on RXF 393 renal worked out at 6.06 µM; in the test with SK-MEL-2 melanoma, 6.35 µM; in the test on SNB-75 CNS, 9.75 µM.
As to `COc1ccc2[nH]c(Cl)c(/C=C3/C(=O)N(C)c4ccccc43)c2c1`, the GI50 with EKVX NSCLC was above 100 µM; in the test with HCT-15 colon it was above 100 µM; in the test with HL-60(TB) leukemia, above 100 µM; with HOP-62 NSCLC, 92 µM; in the test on MOLT-4 leukemia, 79.1 µM; in the test on NCI-H460 lung, above 100 µM. In addition, the GI50 in the test with OVCAR-5 ovarian, in the test with RXF 393 renal and in the test on SK-MEL-2 melanoma was above 100 µM each time. The TGI with EKVX NSCLC, with HCT-15 colon, with HL-60(TB) leukemia, with HOP-62 NSCLC, with MOLT-4 leukemia and in the test with NCI-H460 lung was above 100 µM each time. Besides, the TGI in the test with OVCAR-5 ovarian, in the test on RXF 393 renal and with SK-MEL-2 melanoma was above 100 µM each time.
